Assay results as given in ChEMBL document CHEMBL1126700, “Synthesis and serotonergic activity of 5-(oxadiazolyl)tryptamines: potent agonists for 5-HT1D receptors” (J Med Chem, 1993).

How the values were obtained:
[1] = target: Serotonin 2 (5-HT2) receptor (Rattus norvegicus, UniProt P30994+P08909+P14842); assay: isplacement of [3H]DOB from rat cortex homogenate 5-hydroxytryptamine 2 receptor
Oryctolagus cuniculus [2] = species on record: Oryctolagus cuniculus; assay: Relative maximum is the relative efficacy for serotonergic activity on rabbit saphenous vein with respect to 1 uM 5-HT; assay type: functional
[3] = target: T1, Serotonin 3 (5-HT3) receptor (Rattus norvegicus, UniProt P35563+Q9JJ16); assay: Displacement of [3H]-Q-ICS 205-930 from rat cortex homogenate 5-hydroxytryptamine 3 receptor
T1 sequence (P35563 whole entry): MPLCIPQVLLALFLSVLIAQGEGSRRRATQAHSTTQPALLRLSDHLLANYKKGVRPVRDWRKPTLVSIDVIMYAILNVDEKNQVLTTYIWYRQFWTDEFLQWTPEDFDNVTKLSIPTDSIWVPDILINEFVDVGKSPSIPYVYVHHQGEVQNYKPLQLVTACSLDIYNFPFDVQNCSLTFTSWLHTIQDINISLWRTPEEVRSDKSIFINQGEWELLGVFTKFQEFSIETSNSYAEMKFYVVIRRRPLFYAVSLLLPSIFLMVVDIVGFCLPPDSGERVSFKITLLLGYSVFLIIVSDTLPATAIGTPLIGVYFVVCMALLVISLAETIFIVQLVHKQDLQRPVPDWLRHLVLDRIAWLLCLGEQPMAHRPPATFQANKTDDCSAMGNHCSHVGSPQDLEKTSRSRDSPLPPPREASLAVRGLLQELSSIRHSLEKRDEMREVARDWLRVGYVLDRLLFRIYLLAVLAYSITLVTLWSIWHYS
T1 sequence (Q9JJ16 whole entry): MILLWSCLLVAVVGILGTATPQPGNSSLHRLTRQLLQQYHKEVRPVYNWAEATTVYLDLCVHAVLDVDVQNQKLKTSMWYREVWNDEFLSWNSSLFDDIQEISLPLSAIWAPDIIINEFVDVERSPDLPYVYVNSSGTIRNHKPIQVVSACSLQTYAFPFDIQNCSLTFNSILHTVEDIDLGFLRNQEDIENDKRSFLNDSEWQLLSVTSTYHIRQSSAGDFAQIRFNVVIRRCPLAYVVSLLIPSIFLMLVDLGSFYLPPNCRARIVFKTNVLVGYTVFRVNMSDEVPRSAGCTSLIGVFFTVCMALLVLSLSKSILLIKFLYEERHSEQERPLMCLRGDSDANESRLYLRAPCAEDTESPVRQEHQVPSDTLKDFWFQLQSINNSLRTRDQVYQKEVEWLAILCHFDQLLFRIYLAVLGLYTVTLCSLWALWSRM

[4] = target: 5-hydroxytryptamine receptor 1D (Sus scrofa, UniProt P79400); assay: Displacement of radioligand [3H]5-HT binding to 5-hydroxytryptamine 1D receptor in pig caudate membrane; assay type: cell membranes
[5] = Partition coefficient (logD7.4); conditions: octanol/water, pH 7.4
Oryctolagus cuniculus [6] = species on record: Oryctolagus cuniculus; assay: Serotonergic activity was assessed in vitro on the New Zealand white rabbit saphenous vein preparation; assay type: functional
Oryctolagus cuniculus [7] = species on record: Oryctolagus cuniculus; assay: Relative maximum is the relative efficacy with respect to 1 uM 5-HT; assay type: functional

Sequence of 5-hydroxytryptamine receptor 1D (P79400 whole entry): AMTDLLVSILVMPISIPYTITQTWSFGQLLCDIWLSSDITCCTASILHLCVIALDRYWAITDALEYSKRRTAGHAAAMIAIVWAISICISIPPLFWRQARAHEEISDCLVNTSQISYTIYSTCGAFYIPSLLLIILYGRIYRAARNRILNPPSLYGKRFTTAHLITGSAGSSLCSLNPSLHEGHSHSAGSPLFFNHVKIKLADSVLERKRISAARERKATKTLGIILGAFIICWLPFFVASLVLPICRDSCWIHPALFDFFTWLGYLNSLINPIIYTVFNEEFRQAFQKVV

Structure (SMILES) | pIC50 [1] | IC50 [3] [nM] | IC50 [4] [nM] | logD [5] | also measured
CN(C)CCc1c[nH]c2ccc(Cc3nc(N)ns3)cc12 | 6.9 | 2400 | 2 | – | Relative maximum (Oryctolagus cuniculus [2]): 1.1
CN(C)CCc1c[nH]c2ccc(Cc3nc(-c4ccc(NS(C)(=O)=O)cc4)no3)cc12 | – | – | 10 | – | –
CN(C)CCc1c[nH]c2ccc(Cc3nc(N)no3)cc12 | 6.4 | 2510 | 25.1 | – | –
NCCc1c[nH]c2ccc(C(N)=O)cc12 | – | – | 3.98 | – | –
COc1ccc(Cc2noc(-c3ccc4[nH]cc(CCN)c4c3)n2)cc1 | 6 | > 10000 | 0.794 | – | –
Cc1cnc(-c2ccc3[nH]cc(CCN(C)C)c3c2)o1 | – | – | 7.94 | – | –
CN(C)CCc1c[nH]c2ccc(-c3nc(Cc4ccccc4)no3)cc12 | – | – | 6.31 | – | –
CN(C)CCc1c[nH]c2ccc(Cc3nc(Cc4ccc(NS(C)(=O)=O)cc4)no3)cc12 | – | – | 31.6 | 0.5 | –
NCCc1c[nH]c2ccc(CCc3nc(Cc4ccccc4)no3)cc12 | 6.6 | > 10000 | 5.01 | – | –
CN(C)CCc1c[nH]c2ccc(CCc3nc(Cc4ccccc4)no3)cc12 | – | – | 12.6 | – | –
Cc1noc(-c2ccc3[nH]cc(CCN)c3c2)n1 | 5.8 | > 10000 | 10 | -0.37 | Relative maximum (Oryctolagus cuniculus [2]): 1; EC50 (Oryctolagus cuniculus [6]): 251 nM
NCCc1c[nH]c2ccc(O)cc12 [SEROTONIN] | – | – | 10 | – | Relative maximum (Oryctolagus cuniculus [7]): 1
CNC(=O)c1ccc(-c2noc(Cc3ccc4[nH]cc(CCN(C)C)c4c3)n2)cc1 | – | – | 2 | 1.45 | –
NCCc1c[nH]c2ccc(CCc3nc(N)no3)cc12 | – | – | 10 | -1.51 | –
Cc1noc(Cc2ccc3[nH]cc(CCN(C)C)c3c2)n1 | 5.6 | 3980 | 50.1 | – | –
CN(C)CCc1c[nH]c2ccc(-c3nc(Cc4ccc(NS(C)(=O)=O)cc4)no3)cc12 | – | – | 1.26 | 1.25 | –
CC(=O)NCc1noc(-c2ccc3[nH]cc(CCN)c3c2)n1 | – | – | 20 | – | –
NCCc1c[nH]c2ccc(-c3nc(-c4ccccc4)no3)cc12 | – | – | 79.4 | – | –
CNC(=O)c1ccc(-c2noc(-c3ccc4[nH]cc(CCN)c4c3)n2)cc1 | – | – | 0.794 | – | –
Cc1noc(CCCc2ccc3[nH]cc(CCN)c3c2)n1 | – | – | 5.01 | – | –

Structure (SMILES) | pIC50 [1] | IC50 [3] [nM] | IC50 [4] [nM] | logD [5] | also measured
NCCc1c[nH]c2ccc(Cc3nc(N)no3)cc12 | 6.1 | > 10000 | 20 | – | EC50 (Oryctolagus cuniculus [6]): 158 nM
CNS(=O)(=O)c1ccc(Cc2noc(-c3ccc4[nH]cc(CCN)c4c3)n2)cc1 | – | – | 0.251 | 0.25 | Relative maximum (Oryctolagus cuniculus [2]): 0.9; EC50 (Oryctolagus cuniculus [6]): 12.6 nM
COc1cccc(Cc2noc(-c3ccc4[nH]cc(CCN)c4c3)n2)c1 | – | – | 1.26 | – | –
NCCc1c[nH]c2ccc(-c3nc(Cc4ccccc4)no3)cc12 | 5.9 | > 10000 | 6.31 | 1.32 | –
NCCc1c[nH]c2ccc(Cc3nc(Cc4ccccc4)no3)cc12 | – | – | 31.6 | 0.42 | –
CC(=O)Nc1ccc(Cc2noc(Cc3ccc4[nH]cc(CCN)c4c3)n2)cc1 | – | – | 2.51 | -0.36 | –
NCCc1c[nH]c2ccc(Cc3nc(-c4ccccc4)no3)cc12 | – | – | 20 | – | –
NCCc1c[nH]c2ccc(-c3nc(C4CC4)no3)cc12 | 5.6 | > 10000 | 7.94 | 0.6 | –
NCCc1c[nH]c2ccc(CCCc3nc(Cc4ccccc4)no3)cc12 | – | – | 1.58 | – | –
CS(=O)(=O)Nc1ccc(Cc2noc(-c3ccc4[nH]cc(CCN)c4c3)n2)cc1 [L-694247] | 6.5 | > 10000 | 0.316 | 0.25 | Relative maximum (Oryctolagus cuniculus [2]): 1; EC50 (Oryctolagus cuniculus [6]): 15.8 nM
CNS(=O)(=O)Cc1ccc2[nH]cc(CCN(C)C)c2c1 | – | – | – | -1.17 | –
CN(C)CCc1c[nH]c2ccc(CCCc3nc(Cc4ccccc4)no3)cc12 | – | – | 12.6 | – | –
CCc1noc(-c2ccc3[nH]cc(CCN)c3c2)n1 | – | – | 12.6 | 0.13 | –
CN(C)CCc1c[nH]c2ccc(CCc3nc(N)no3)cc12 | 6.7 | 6310 | 12.6 | – | EC50 (Oryctolagus cuniculus [6]): 200 nM
COc1ccccc1Cc1noc(-c2ccc3[nH]cc(CCN)c3c2)n1 | – | – | 15.8 | 1.38 | –
CC(=O)Nc1ccc(Cc2noc(-c3ccc4[nH]cc(CCN)c4c3)n2)cc1 | 6.4 | > 10000 | 0.501 | 0.48 | Relative maximum (Oryctolagus cuniculus [2]): 1; EC50 (Oryctolagus cuniculus [6]): 12.6 nM
CS(=O)(=O)Nc1ccc(Cc2noc(Cc3ccc4[nH]cc(CCN)c4c3)n2)cc1 | – | – | 3.16 | -0.54 | –
CN(C)CCc1c[nH]c2ccc(-c3nc(N)no3)cc12 | – | – | 79.4 | 0.2 | –
NCCc1c[nH]c2ccc(-c3nc(N)no3)cc12 | – | – | 50.1 | -0.72 | –
Cc1noc(Cc2ccc3[nH]cc(CCN)c3c2)n1 | 5.5 | > 10000 | 31.6 | -1.7 | –
